In US8604059B2, “Thioxanthene derivatives for the treatment of infectious diseases” (BKG Pharma APS, priority 2009, dated 2013):
Values joined by “and” are separate entries in the source; they are usually repeats but may differ in a detail not shown here. Identical values can stand only once.

Assays:
[1] = system: Enterococcus faecalis ENT 28 (VRE); experiment: Mouse peritonitis model, neutropenic NMRI mice, enhancing effect with linezolid; type: in vivo
Experimental: A multiresistant clinical isolate of Enterococcus faecalis ENT 28 (VRE) from human urine was used.
Female NMRI mice (age, approximately 6 to 8 weeks; weight, 30±2 g) were used for the mouse […] peritonitis model (as described below).
In order to detect any synergistic effect, infected mice were treated with sub-therapeutic doses of each test compound alone or a mixture of the two compounds.
Bacterial suspensions were prepared from fresh overnight cultures (made from frozen stock cultures) on 5% blood agar plates as described above. The inoculum for the mouse peritonitis model was prepared immediately before use and was adjusted at 540 nm of giving a density of approximately 10^7 CFU/ml. The size of the inoculum was determined by viability counting on 5% blood agar.
Neutropenia was introduced by pretreating the mice with cyclophosphamide (6 mg daily for three days). […] Antibiotic therapy was initiated just after inoculation. Linezolid and compound 3 was administered subcutaneously in the neck region in a volume of 0.5 ml per dose. 3 mice were in each treatment group. Inoculated untreated control mice were included in all trials. (Method reference: Erlandsdottir et al; Antimicrob Agents Chemother. 2001 April; 45(4):1078-85)
The effects of the various treatment regimens were determined during 5 h of treatment by evaluation of bacterial counts in the peritoneal fluid. After the mice were killed, peritoneal washes were performed by injecting 2 ml of sterile saline intraperitoneally, followed by massage of the abdomen and then opening of the peritoneum to collect the fluid. Peritoneal fluids were immediately diluted 10-fold in saline, from which 20 μl was plated onto 5% blood agar plates in spots, with subsequent counting of colonies after incubation overnight at 35° C. The lowest detection levels for bacterial counts in blood and peritoneal fluid were 50 and 250 CFU/ml, respectively.

[2] = Cytotoxic effect in uninfected MT4 cultures; type: cell-based; conditions: human, uninfected MT4 cells; single agent; uninfected MT4
Experimental: (§1) Compounds were examined for possible antiviral activity against strain IIIB of HIV-1 using MT4 cells as target cells. MT4 cells were incubated with virus (0.005 MOI) and growth medium containing the test dilutions of compound(s) for six days in parallel with virus-infected and uninfected control cultures without compound added. Expression of HIV in the cultures was indirectly quantified using the MTT assay as previously described. Compounds mediating less than 30% reduction of HIV expression were considered without biological activity. Compounds were tested in parallel for cytotoxic effect in uninfected MT4 cultures containing the test dilutions of compound as described above. Cultures for test of both antiviral activity and cytotoxic effect were set up in tripleduplicates, […] per culture in micro titre plates. A 30% inhibition of cell growth relative to control cultures was considered significant. The 50% inhibitory concentration was determined by interpolation from the plots of percent inhibition versus concentration of compound.
(§2) CC50 is defined as the inhibitory concentration that reduces cellular growth or viability of uninfected cells by 50%.

MT4 cells = experiment: Cytotoxic effect in uninfected MT4 cultures; type: cell-based; conditions: at the concentrations used
Experimental: as §1, §2

[3] = treatment 0 and 2 hours, sampling 5 hours, sub-therapeutic doses as in Table 9, individual mice

Compound: Clc1ccc2c(c1)/C(=C/CCC1CCNCC1)c1ccccc1S2 [Compound 3]
- Effect on the infection / bacteria in mouse peritoneum ([1]; sub-therapeutic dose alone): did not affect the bacteria
- score at sampling ([1]; treatment 0 and 2 hours, sampling 5 hours, Linezolid 1 mg/ml 0.5 ml, Compound 3 0.1 mg/ml 0.5, combination Linezolid 2 mg/ml (0.25 ml) and compound 3 0.2 mg/ml (0.25 ml), individual mice): 1 and 2 (2×)
- Cfu/ml peritoneum [1, 3]: 2.35E+09 Cfu/ml and 2.63E+09 Cfu/ml and 3.15E+09 Cfu/ml
- log (cfu/ml) peritoneum [1, 3]: 9.37 log (cfu/ml) and 9.42 log (cfu/ml) and 9.50 log (cfu/ml)
- CC50 at 6 days [2]: > 4 µM
- Cytotoxic effect alone (MT4 cells): no antiviral or cytotoxic effect
